Source: patent US20120295907A1, “INSECTICIDAL COMPOUNDS” (SYNGENTA CROP PROTECTION, LLC, priority 2009, published 2012)

How the values were obtained:
Format in all cases: in vivo
Spodoptera littoralis = Spodoptera littoralis (Egyptian Cotton Leafworm) cotton leaf disc spray test; conditions: foliar, 72 h, 200 ppm spray on cotton leaf discs, L1 larvae, mortality, feeding behavior, growth regulation 3 DAT
Heliothis virescens = Heliothis virescens (Tobacco Budworm) egg test on artificial diet; conditions: 96 h, 200 ppm (concentration in well 18 ppm), eggs 0-24 h old on artificial diet, 4 days, egg mortality, larval mortality, growth regulation
Plutella xylostella = Plutella xylostella (Diamond Back Moth) artificial diet MTP test; conditions: 144 h, 200 ppm (concentration in well 18 ppm), L2 larvae, 6 days, larval mortality, growth regulation
Tetranychus urticae = Tetranychus urticae (Two-Spotted Spider Mite) bean leaf disc spray test; conditions: foliar, 192 h, 200 ppm spray on bean leaf discs, mite populations of mixed ages, 8 days, egg, larval and adult mortality, read-out: control of Tetranychus urticae
Diabrotica balteata = Diabrotica balteata (Corn Root Worm) artificial diet MTP test; conditions: 120 h, 200 ppm (concentration in well 18 ppm), L2 larvae, 5 days, larval mortality, growth regulation
Thrips tabaci = Thrips tabaci (Onion Thrips) sunflower leaf disc spray test; conditions: foliar, 168 h, 200 ppm spray on sunflower leaf discs, population of mixed ages, 7 days, mortality

Measured: pest or weed control at 200 ppm

COc1c(NC(=O)c2sc(C)nc2C)cccc1C(=O)Nc1c(Cl)cc(C(F)(C(F)(F)F)C(F)(F)C(F)(F)F)cc1Br (stereo not shown) [B96]
not listed: Thrips tabaci
≥ 80%: all other assays above

COc1c(NC(=O)c2cc(F)ccc2Cl)cccc1C(=O)Nc1c(Cl)cc(C(F)(C(F)(F)F)C(F)(F)C(F)(F)F)cc1Br (stereo not shown) [B154]
not listed: Heliothis virescens
≥ 80%: all other assays above

COc1c(NC(=O)c2ccc(C(F)(F)F)cc2)cccc1C(=O)Nc1c(Cl)cc(C(F)(C(F)(F)F)C(F)(F)C(F)(F)F)cc1Cl (stereo not shown) [C15]
not listed: Diabrotica balteata
≥ 80%: all other assays above

COc1c(NC(=O)c2ccc([N+](=O)[O-])c(C(F)(F)F)c2)cccc1C(=O)Nc1c(Cl)cc(C(F)(C(F)(F)F)C(F)(F)C(F)(F)F)cc1Br (stereo not shown) [B179]
not listed: Thrips tabaci
≥ 80%: all other assays above

COc1c(NC(=O)c2c(F)cccc2F)cccc1C(=O)Nc1c(Cl)cc(C(F)(C(F)(F)F)C(F)(F)C(F)(F)F)cc1Br (stereo not shown) [B172]
not listed: Diabrotica balteata
≥ 80%: all other assays above

COc1c(NC(=O)c2ccc([N+](=O)[O-])c(C)c2)cccc1C(=O)Nc1c(Cl)cc(C(F)(C(F)(F)F)C(F)(F)C(F)(F)F)cc1Br (stereo not shown) [B190]
not listed: Diabrotica balteata
≥ 80%: all other assays above

COc1c(NC(=O)c2ccc(S(C)(=O)=O)cc2)cccc1C(=O)Nc1c(C)cc(C(F)(C(F)(F)F)C(F)(F)C(F)(F)F)cc1C (stereo not shown) [F18]
not listed: Thrips tabaci
≥ 80%: all other assays above

COc1c(NC(=O)c2ccco2)cccc1C(=O)Nc1c(Cl)cc(C(F)(C(F)(F)F)C(F)(F)C(F)(F)F)cc1Cl (stereo not shown) [C12]
not listed: Thrips tabaci
≥ 80%: all other assays above

COc1c(NC(=O)c2ccc(C#N)cc2Cl)cccc1C(=O)Nc1c(Cl)cc(C(F)(C(F)(F)F)C(F)(F)F)cc1Br [G2]
not listed: Thrips tabaci
≥ 80%: all other assays above

COc1c(NC(=O)c2ccc([N+](=O)[O-])cc2C)cccc1C(=O)Nc1c(C)cc(C(F)(C(F)(F)F)C(F)(F)C(F)(F)F)cc1C (stereo not shown) [F24]
not listed: Thrips tabaci
≥ 80%: all other assays above

COc1c(NC(=O)c2c(F)cc(F)cc2F)cccc1C(=O)Nc1c(C)cc(C(F)(C(F)(F)F)C(F)(F)C(F)(F)F)cc1C (stereo not shown) [F25]
not listed: Thrips tabaci
≥ 80%: all other assays above

CCc1cc(C(F)(C(F)(F)F)C(F)(F)C(F)(F)F)cc(C)c1NC(=O)c1cccc(NC(=O)c2cccc([N+](=O)[O-])c2C)c1OC (stereo not shown) [A2, N-[2-ethyl-4-(1,2,2,3,3,3-hexafluoro-1-trifluoromethylpropyl)-6-methylphenyl]-3-(2-methyl-3-nitrobenzoylamino)-2-methoxybenzamide]
≥ 80%: Spodoptera littoralis | Plutella xylostella | Thrips tabaci | Tetranychus urticae

COc1c(NC(=O)c2cc(F)c(C#N)cc2F)cccc1C(=O)Nc1c(Cl)cc(C(F)(C(F)(F)F)C(F)(F)F)cc1Cl [E24]
not listed: Thrips tabaci
≥ 80%: all other assays above

COc1c(NC(=O)c2cccc([N+](=O)[O-])c2C)cccc1C(=O)Nc1c(Cl)cc(C(F)(C(F)(F)F)C(F)(F)C(F)(F)F)cc1Br (stereo not shown) [B69]
not listed: Thrips tabaci
≥ 80%: all other assays above

CCc1cc(C(F)(C(F)(F)F)C(F)(F)C(F)(F)F)cc(C)c1NC(=O)c1cccc(NC(=O)c2ccc(C#N)cc2C)c1OC (stereo not shown) [A5, N-[2-ethyl-4-(1,2,2,3,3,3-hexafluoro-1-trifluoromethylpropyl)-6-methyl-phenyl]-3-(4-cyano-2-methylbenzoylamino)-2-methoxybenzamide]
not listed: Heliothis virescens
≥ 80%: all other assays above

COc1c(NC(=O)c2ccc(Br)c(C)c2)cccc1C(=O)Nc1c(Cl)cc(C(F)(C(F)(F)F)C(F)(F)C(F)(F)F)cc1Br (stereo not shown) [B65]
not listed: Diabrotica balteata
≥ 80%: all other assays above

COc1c(NC(=O)c2ccc(C#N)cc2C)cccc1C(=O)Nc1c(Cl)cc(C(F)(C(F)(F)F)C(F)(F)F)cc1Br [G1]
not listed: Thrips tabaci
≥ 80%: all other assays above

COc1c(NC(=O)c2ccc([N+](=O)[O-])c(Cl)c2)cccc1C(=O)Nc1c(Cl)cc(C(F)(C(F)(F)F)C(F)(F)C(F)(F)F)cc1Br (stereo not shown) [B170]
not listed: Thrips tabaci
≥ 80%: all other assays above

COc1c(NC(=O)c2c(Cl)cccc2Cl)cccc1C(=O)Nc1c(Cl)cc(C(F)(C(F)(F)F)C(F)(F)C(F)(F)F)cc1Br (stereo not shown) [B158]
not listed: Thrips tabaci
≥ 80%: all other assays above

COc1c(NC(=O)c2ccc([N+](=O)[O-])cc2F)cccc1C(=O)Nc1c(Cl)cc(C(F)(C(F)(F)F)C(F)(F)C(F)(F)F)cc1Br (stereo not shown) [B191]
not listed: Diabrotica balteata
≥ 80%: all other assays above

COc1c(NC(=O)c2cccnc2F)cccc1C(=O)Nc1c(Cl)cc(C(F)(C(F)(F)F)C(F)(F)C(F)(F)F)cc1Br (stereo not shown) [B194]
not listed: Thrips tabaci
≥ 80%: all other assays above

COc1c(NC(=O)c2ccc(C#N)cc2C)cccc1C(=O)Nc1c(Cl)cc(C(F)(C(F)(F)F)C(F)(F)C(F)(F)F)cc1Br (stereo not shown) [B1, N-[2-bromo-6-chloro-4-(1,2,2,3,3,3-hexafluoro-1-trifluoromethylpropyl)-phenyl]-3-(4-cyano-2-methylbenzoylamino)-2-methoxybenzamide]
not listed: Diabrotica balteata
≥ 80%: all other assays above

COc1c(NC(=O)c2ccc(C#N)cc2C)cccc1C(=O)Nc1c(C)cc(C(F)(C(F)(F)F)C(F)(F)F)cc1C [K4]
not listed: Thrips tabaci
≥ 80%: all other assays above

COc1c(NC(=O)c2ccccc2F)cccc1C(=O)Nc1c(C)cc(C(F)(C(F)(F)F)C(F)(F)C(F)(F)F)cc1C (stereo not shown) [F1]
not listed: Thrips tabaci
≥ 80%: all other assays above

COc1c(NC(=O)c2ccc([N+](=O)[O-])o2)cccc1C(=O)Nc1c(Cl)cc(C(F)(C(F)(F)F)C(F)(F)C(F)(F)F)cc1Br (stereo not shown) [B61]
not listed: Thrips tabaci
≥ 80%: all other assays above

COc1c(NC(=O)c2ccc(Cl)cc2Cl)cccc1C(=O)Nc1c(C)cc(C(F)(C(F)(F)F)C(F)(F)C(F)(F)F)cc1C (stereo not shown) [F15]
not listed: Thrips tabaci
≥ 80%: all other assays above

COc1c(NC(=O)c2ccc(F)cc2C)cccc1C(=O)Nc1c(C)cc(C(F)(C(F)(F)F)C(F)(F)C(F)(F)F)cc1C (stereo not shown) [F27]
not listed: Thrips tabaci
≥ 80%: all other assays above

COc1c(NC(=O)c2c(F)cc(C#N)cc2F)cccc1C(=O)Nc1c(Cl)cc(C(F)(C(F)(F)F)C(F)(F)C(F)(F)F)cc1Br (stereo not shown) [B176]
not listed: Diabrotica balteata
≥ 80%: all other assays above
